Measured values reported in article PMC10377643, “Exploration of Bis-Cinnamido-Polyamines as Intrinsic Antimicrobial Agents and Antibiotic Enhancers” (Biomolecules, 2023).
Values after ≈ are worked out from the molar mass of the structure shown. Like-named read-outs stand apart in the source and are kept apart here.

Legend:
[1] = tested on: P. aeruginosa PAO1; experiment: Intrinsic MIC, P. aeruginosa PAO1; format: cell-based; conditions: Pseudomonas aeruginosa
Protocol: (§1) Antibiotic enhancer concentrations were determined using previously reported protocols.

[2] = tested on: K. pneumoniae ATCC 13883; experiment: Intrinsic MIC, K. pneumoniae ATCC 13883; format: cell-based; conditions: Klebsiella pneumoniae
Protocol: as §1

[3] = tested on: A. baumannii AYE; experiment: Intrinsic MIC, A. baumannii AYE; format: cell-based; conditions: Acinetobacter baumannii, read-out: MIC alone, A. b
Protocol: as §1

[4] = tested on: MRSA ATCC 43300; experiment: Antimicrobial MIC, MRSA (CO-ADD); format: cell-based, methicillin-resistant S. aureus; conditions: Staphylococcus aureus, read-out: MIC MRSA
Protocol: (§2) The susceptibility of bacterial strains S. aureus (ATCC 25923), E. coli (ATCC 25922) and P. aeruginosa (ATCC 27853) to antibiotics and compounds was determined using protocols reported previously. Additional antimicrobial evaluation against MRSA (ATCC 43300), Klebsiella pneumoniae (ATCC 700603), Acinetobacter baumannii (ATCC 19606), Candida albicans (ATCC 90028) and Cryptococcus neoformans (ATCC 208821) was undertaken at the Community for Open Antimicrobial Drug Discovery at The University of Queensland (Australia) according to their standard protocols reported previously.

[5] = tested on: S. aureus ATCC 25923; experiment: Antimicrobial MIC, S. aureus; format: cell-based; conditions: Staphylococcus aureus, ATCC25923, mean (n = 3)
Protocol: as §2

[6] = tested on: P. aeruginosa ATCC 27853; experiment: Antimicrobial MIC, P. aeruginosa; format: cell-based; conditions: Pseudomonas aeruginosa, ATCC27853, mean (n = 3)
Protocol: as §2

[7] = tested on: E. coli ATCC 25922; experiment: Antimicrobial MIC, E. coli; format: cell-based, Escherichia coli; conditions: Escherichia coli, ATCC25922, E. coli ATCC 25922; mean (n = 3)
Protocol: as §2

[8] = tested on: C. albicans ATCC 90028; experiment: Antifungal MIC, C. albicans (CO-ADD); format: cell-based; conditions: Candida albicans, ATCC90028, mean (n = 2)
Protocol: as §2

[9] = Cytotoxicity assay; format: cell-based, human; conditions: human, HEK293 human embryonic kidney cells, mean (n = 2), read-out: Cytotoxicity (IC50), concentration of compound at 50% cytotoxicity
Protocol: (§3) Cytotoxicity assays were conducted using the protocols previously reported.

[10] = tested on: HEK293 human embryonic kidney cells; experiment: Cytotoxicity assay; format: cell-based; conditions: mean (n = 2)
Protocol: as §3

[11] = tested on: P. aeruginosa ATCC 27853; experiment: Doxycycline enhancement against P. aeruginosa; format: cell-based, Pseudomonas aeruginosa; conditions: doxycycline fixed at 4.5 µM
Protocol: as §1
We then evaluated the set of analogues for the ability to enhance the antibiotic activity of doxycycline against P. aeruginosa ATCC 27853 and of erythromycin against E. coli ATCC 25922 (Table 2). In the case of doxycycline, a fixed concentration of the antibiotic of 4.5 μM, which is twenty-fold lower than the intrinsic MIC 90 μM against this organism, was used. Each of the test compounds was then evaluated at a range of concentrations varying from 3.125 to 50–100 μM, with the upper concentration dependent upon the compounds intrinsic MIC towards P. aeruginosa (Table 1). […] While the observation of cytotoxicity/hemolytic properties of 16a–c, 14f and 13f reduces our interest in these analogues, analogues 13b and 13d were identified as non-toxic and strong enhancers of the action of doxycycline towards P. aeruginosa.

[12] = tested on: E. coli ATCC 25922; experiment: Erythromycin enhancement against E. coli; format: cell-based, Escherichia coli; conditions: erythromycin fixed at 10.9 µM (8 µg/mL)
Protocol: as §1

[13] = tested on: antimicrobial activity (microbes not named); set-up: method as in PMID 36982955; conditions: cited from earlier work
[14] = tested on: P. aeruginosa; set-up: method as in PMID 36982955; conditions: cited from earlier work
[15] = P. aeruginosa PAO1, substance alone (no antibiotic / no enhancer), read-out: MIC alone, P. a
[16] = ATCC13883, K. pneumoniae ATCC 13883, substance alone, read-out: MIC alone, K. p
[17] = A. baumannii AYE, substance alone

## CC[C@H]1OC(=O)[C@H](C)[C@@H](O[C@H]2C[C@@](C)(OC)[C@@H](O)[C@H](C)O2)[C@H](C)[C@@H](O[C@@H]2O[C@H](C)C[C@H](N(C)C)[C@H]2O)[C@](C)(O)C[C@@H](C)C(=O)[C@H](C)[C@@H](O)[C@]1(C)O [erythromycin]
[1]; [15]
  MIC: > 200 µM
[2]; [16]
  MIC: > 200 µM
[3]; [17]
  MIC: > 200 µM

## CN[C@H](CC(C)C)C(=O)N[C@H]1C(=O)N[C@@H](CC(N)=O)C(=O)N[C@H]2C(=O)N[C@H]3C(=O)N[C@H](C(=O)N[C@H](C(=O)O)c4cc(O)cc(O)c4-c4cc3ccc4O)[C@H](O)c3ccc(c(Cl)c3)Oc3cc2cc(c3O[C@@H]2O[C@H](CO)[C@@H](O)[C@H](O)[C@H]2O[C@H]2C[C@](C)(N)[C@H](O)[C@H](C)O2)Oc2ccc(cc2Cl)[C@H]1O [vancomycin]
[4]
  MIC: 0.7 µM (≈ 1.01 µg/mL)
[1]; PAO1, read-out: MIC alone, P. a
  MIC: 138 µM (≈ 200 µg/mL)
[2]; ATCC13883, read-out: MIC alone, K. p
  MIC: 138 µM (≈ 200 µg/mL)
[3]
  MIC: 138 µM (≈ 200 µg/mL)

## COc1ccc(/C=C/C(=O)NCCCNCCCCCCCCNCCCNC(=O)/C=C/c2ccc(OC)cc2)cc1.O=C(O)C(F)(F)F.O=C(O)C(F)(F)F [Compound 14d, N^1,N^8-Bis(3-((E)-3-(4-methoxyphenyl)acrylamido)propyl)octane-1,8-diaminium 2,2,2-trifluoroacetate]
[5]
  MIC: 7.75 µM
[4]; MRSA ATCC 43300, mean (n = 2)
  MIC: ≤ 0.31 µM
[6]
  MIC: 248 µM
[7]
  MIC: 62 µM
[8]
  MIC: > 39.7 µM
[9]
  IC50: > 39.7 µM
[10]
  Cytotoxicity (IC50), concentration of compound at 50% cytotoxicity: does not exhibit cytotoxicity/hemolysis
[11]
  Dox/P. a: concentration required to restore doxycycline activity: 15.5 µM
  Dox/P. a: fold change (intrinsic MIC of test compound / combination MIC): 16 fold
[12]
  Eryth/E. c: concentration required to restore erythromycin activity: 62 µM
  Eryth/E. c: fold change (intrinsic MIC of test compound / combination MIC): 1 fold

## O=C(CCc1ccccc1)NCCCNCCCCCCCCNCCCNC(=O)CCc1ccccc1 [Compound 18]
[13]
  Antimicrobial activity: devoid of antimicrobial activity
[14]
  Ability to enhance the action of doxycycline towards P. aeruginosa: devoid

## O=C(N[C@H](CO)[C@H](O)c1ccc([N+](=O)[O-])cc1)C(Cl)Cl [chloramphenicol]
[5]
  MIC: 1.5 to 3 µM (≈ 0.485 to 0.969 µg/mL)
[1]; [15]
  MIC: > 200 µM
[2]; [16]
  MIC: > 200 µM
[3]; [17]
  MIC: > 200 µM

## CN(C)c1ccc(O)c2c1C[C@H]1C[C@H]3[C@H](N(C)C)C(O)=C(C(N)=O)C(=O)[C@@]3(O)C(O)=C1C2=O [minocycline]
[1]; [15]
  MIC: 70 µM
[2]; [16]
  MIC: 27 µM (≈ 12.4 µg/mL)
[3]; [17]
  MIC: 27 µM (≈ 12.4 µg/mL)
